This is an account of results in patent US8865763B2, “Methods and compositions for altering cell function” (Alltech, Inc., priority 2005, dated 2014).

Each structure is given as a SMILES string.

One data set deals with Glutathione Peroxidase 1. Briefly: Microarray gene expression, mouse intestine: Glutathione Peroxidase 1. It is filed as in vivo. The note with it: diet 1 ppm Se, vs selenium deficient, all p < 0.01. From the text:
(§1) Animal Care. Male C57BL/6J mice were housed singly and started on the experimental diets described below immediately after weaning (21 days of age). The mice were maintained in the Shared Aging Rodent Facility at the William S. Middleton Memorial Veterans Administration Medical Center (Madison, Wis.). Temperature and humidity were maintained at constant levels. Room light was controlled to provide 12-hr cycles of light and dark.
(§2) Experimental diets were created by Harlan Teklad (Madison, Wis.). Selenium content of the diets was determined by Covance Inc. (Madison, Wis.). Five (5) animals were included in each of the following treatment groups: a diet deficient in selenium (SD); a diet supplemented with selenomethionine (SM, obtained from Sigma, St. Louis, Mo.) such that the final selenium content of the diet was one (1) part per million; a diet supplemented with sodium selenite (SS, Sigma) such that the final concentration of selenium in this diet was one (1) part per million; or a diet supplemented with the yeast selenium SEL-PLEX (SP, Alltech, Lexington, Ky.), such that the final concentration of selenium in this diet was one (1) part per million. SEL-PLEX. […]
(§3) Tissue sample preparation and microarray analysis. […] For intestinal expression studies, the intestine was flushed twice with saline solution and small intestine was measured and divided in three equal segments. […]

The next data set deals with Glutathione Peroxidase 3. Nature of the data set: Microarray gene expression, mouse intestine: Glutathione Peroxidase 3. It counts as in vivo. To be noted: diet 1 ppm Se, vs selenium deficient, all p < 0.01.
Excerpt: as §1, §2, §3

Data set [1] concerns Type 1 iodothyronine deiodinase. Nature of the data set: Microarray gene expression, mouse intestine: Type 1 iodothyronine deiodinase. It counts as in vivo. The note with it: diet 1 ppm Se, vs selenium deficient.
Excerpt: as §1, §2, §3

Another data set relates to Selenoprotein W (SelW). Briefly: Microarray gene expression, mouse intestine: SelW. It is filed as in vivo. To be noted: diet 1 ppm Se, vs selenium deficient.
Excerpt: as §1, §2, §3

The next data set relates to selenoprotein N1 (Sepn1). Briefly: Microarray gene expression, mouse intestine: Sepn1. It counts as in vivo. To be noted: diet 1 ppm Se, vs selenium deficient.
Excerpt: as §1, §2, §3

A further data set concerns SelR (Selenoprotein X1). Briefly: Microarray gene expression, mouse intestine: SelR. It is filed as in vivo. The note with it: diet 1 ppm Se, vs selenium deficient.
Excerpt: as §1, §2, §3

Data set [2] relates to type II iodothyronine deiodinase (Dio2). Briefly: Microarray gene expression, mouse intestine: Dio2. It counts as in vivo. The note with it: diet 1 ppm Se, vs selenium deficient.
Excerpt: as §1, §2, §3

The next data set deals with Glyoxalase 1 (Glo1). Briefly: Microarray gene expression, mouse intestine: Glo1. The note with it: diet 1 ppm Se, vs selenium deficient. It counts as in vivo.
Excerpt: as §1, §2, §3

Data set [3] deals with Growth arrest and DNA-damage-inducible 45 gamma (Gadd45g). Nature of the data set: Microarray gene expression, mouse intestine: Gadd45g. It counts as in vivo. To be noted: diet 1 ppm Se, vs selenium deficient, negative = down.
Excerpt: as §1
Experimental diets were created by Harlan Teklad (Madison, Wis.). Selenium content of the diets was determined by Covance Inc. (Madison, Wis.). Five (5) animals were included in each of the following treatment groups: a diet deficient in selenium (SD); a diet supplemented with selenomethionine (SM, obtained from Sigma, St. Louis, Mo.) such that the final selenium content of the diet was one (1) part per million; a diet supplemented with sodium selenite (SS, Sigma) such that the final concentration of selenium in this diet was one (1) part per million; or a diet supplemented with the yeast selenium SEL-PLEX (SP, Alltech, Lexington, Ky.), such that the final concentration of selenium in this diet was one (1) part per million. SEL-PLEX. Mice were provided with water and their respective diet ad libitum for 100 days. Diets were stored at the dark at 4° C. and fresh diet was added to feeder twice weekly.
Tissue sample preparation and microarray analysis. Mice were killed at 100 days of age by cervical dislocation. For intestinal expression studies, the intestine was flushed twice with saline solution and small intestine was measured and divided in three equal segments. A 3-cm region of the middle segment of the small intestine corresponding to the jejunum (˜300 mg of tissue) was cut and rinsed again with physiological saline to completely remove contents, flash frozen in liquid nitrogen and stored at −80° C. For brain (e.g., cerebral cortex) studies, the cerebral cortex was separated from the surrounding brain tissue and was flash frozen in liquid nitrogen and stored at −80° C. […]

For a further data set, the system named is Prohibitin (Phb). Nature of the data set: Microarray gene expression, mouse intestine: Phb. It is filed as in vivo. The note with it: diet 1 ppm Se, vs selenium deficient.
Excerpt: as §1, §2, §3

In data set [4] the test system is LIM homeobox protein 8 gene (Lhx8). Nature of the data set: Microarray gene expression, mouse intestine: Lhx8. It counts as in vivo. The note with it: diet 1 ppm Se, vs selenium deficient.
Excerpt: as §1, §2, §3

Data set [5] deals with transforming growth factor beta 2 (TGF-β2). Nature of the data set: Microarray gene expression, mouse intestine: TGF-β2. It counts as in vivo. The note with it: diet 1 ppm Se, vs controls.
Excerpt: as §1, §2, §3

The subject of a further data set is Neurogenin 3 (Neurog3). Briefly: Microarray gene expression, mouse intestine: Neurog3. It counts as in vivo. The note with it: diet 1 ppm Se, vs selenium deficient.
Excerpt: as §1, §2, §3

The test system of data set [6] is sprouty homolog 2 gene (Spry2). Nature of the data set: Microarray gene expression, mouse intestine: Spry2. It counts as in vivo. To be noted: diet 1 ppm Se, vs Se-deficient controls.
Excerpt: as §1, §2, §3

Data set [7] concerns Complement component 1, q subcomponent, gamma polypeptide, C1qg. Briefly: Microarray gene expression, mouse cerebral cortex: C1qg. It is filed as in vivo. To be noted: diet 1 ppm Se, vs selenium deficient, * p<0.01.
Excerpt: as §1, §2, §3

For another data set, the system named is CORS-26. Nature of the data set: Microarray gene expression, mouse cerebral cortex: CORS-26. It is filed as in vivo. To be noted: diet 1 ppm Se, vs selenium deficient.
Excerpt: as §1, §2, §3

Data set [8] can be described thus: Body weight of mice on selenium diets. It counts as in vivo, mouse. To be noted: mouse, in vivo.
Excerpt: as §1
Experimental diets were created by Harlan Teklad (Madison, Wis.). Selenium content of the diets was determined by Covance Inc. (Madison, Wis.). […]
Thus, it was an object of the present invention to determine whether compositions and methods of the present invention could alter the expression levels (e.g., mRNA levels) of various genes. One group of genes analyzed were genes classically associated with selenium. As described above, the expression levels of genes were analyzed between mice with and without dietary selenium, or, between mice fed different sources of selenium) (See, e.g., Table 1, below).

Data set [9] can be described thus: Hen Brain Se Concentration. The note with it: hens; diet with 0.3 ppm Se from the source. It is filed as in vivo, White-Egg-Laying Hens. How it is done: (§4) Compositions and methods of the present invention were utilized to evaluate the effects of various Se sources on the accumulation of brain Se concentrations in hens and their offspring.
(§5) The study was conducted at the Coldstream Research Facility from Jun. 28, 2004 until Nov. 16, 2004. Six dietary treatments were fed to a total of 48 hens (r=8) that were bred on three consecutive days starting on Sep. 16, 2004.
(§6) • Basal (no added Se) • Selenite (0.3 ppm) • Sel Plex (0.3 ppm) • Tepsel (0.3 ppm) • Se 2000 (0.3 ppm) • Selenosource (0.3 ppm)
(§7) Chicks that hatched were divided into two groups. Half of the chicks were killed for brain collection and the remaining chicks were allowed to grow for 14 days on a Se deficient diet, at which time they were terminated for brain collection. Hen brains were analyzed for Se content individually, whereas the chick brains were homogenized and pooled because of small sample size.
(§8) Brain Se concentrations for the hens and chicks are shown in Tables 4 and 5, below, respectively. The Selenosource value represents only one hen brain analyzed and therefore was not included in the statistical analysis.

Data set [10] can be described thus: Chick Brain Se Concentration at day 14. It counts as in vivo, chicks (offspring of treated hens). The note with it: offspring of hens fed 0.3 ppm Se; chicks 14 days on Se deficient diet; pooled brains. How it is done: as §4, §5, §6, §7, §8

Turning to `C[Se]CC[C@H](N)C(=O)O` [SeM, selenomethionine], in the data set with Glutathione Peroxidase 1, the “fold change in expression of Glutathione Peroxidase 1” value stood at 4.9 fold. In the data set on Glutathione Peroxidase 3, the “fold change in expression of Glutathione Peroxidase 3” value is recorded as 4.6 fold. In addition, in [1], the “fold increase of expression level of Type 1 iodothyronine deiodinase” value is 2.0 fold. For the same molecule, in the data set on Selenoprotein W (SelW), the “expression of Selenoprotein W (SelW), fold upregulated” value is given as “not significantly altered”. In the data set on selenoprotein N1 (Sepn1), the “expression of selenoprotein N1 (Sepn1), fold increased” value is listed as “not significantly affected”. In the data set with SelR (Selenoprotein X1), the “expression of SelR, fold upregulated” value is given as “not significantly affected”. Besides, the “expression of Dio2, fold down-regulation” value in data set [2] is on record as “no ability to alter the expression levels”. In the data set with Glyoxalase 1 (Glo1), the “expression of Glo1, fold reduction” value was “not significantly affected”. Further, the “FC (fold change) expression of Gadd45g” value in [3] is recorded as “decreased expression”; in [3] (listed as SM), −1.5 fold. Moreover, the “expression of Prohibitin (Phb), fold upregulated” value with Prohibitin (Phb) came to 1.6 fold. Moreover, the “expression of Lhx8, fold upregulated” value in data set [4] is “not significantly different”. In addition, the “expression of TGF-β2 (printed TGF-β), fold upregulated” value in [5] was “not altered”. Besides, the “Neurog3 expression, fold upregulated” value in the data set on Neurogenin 3 (Neurog3) is recorded as “no significant alteration”. Moreover, the “Spry2 gene expression, fold reduction” value in data set [6] is given as “no alteration in expression levels”. Further, the “FC (fold change) expression of C1qg” value in [7] is 1.0 fold. In addition, in the data set with CORS-26, the “expression of CORS-26, fold reduction” value is “no alteration in expression levels”. In addition, in data set [8], the “body weights of mice” value is reported as “No significant differences”.
As to `O=[Se](O)O` [Selenite], the “Hen Brain Se Concentration” value in data set [9] worked out at 850 ppb. Further, the “Chick Brain Se Concentration at day 14” value in data set [10] came out at 784 ppb.
